Assay results from patent publication US20100168099A1, “1H-QUINOLIN-4-ONE COMPOUNDS, WITH AFFINITY FOR THE GABA RECEPTOR, PROCESSES, USES AND COMPOSITIONS” (FERRER INTERNACIONAL, S.A., priority 2006, published 2010).

Columns and labels:
α2-GABAA receptor = experiment: Ligand-binding assay, radiolabeled flumazenil competition, spinal cord membranes; design: species or system rat; details: for Affinity for the α2-subunit of the GABAA receptor, % inhibition: rat spinal cord membranes, radiolabeled flumazenil 1 nM
Experimental: (§1) a) Ligand-binding Assays. Determination of the Affinity of Test Compounds for α1- and α2-GABAA, Receptor
(§2) Male Sprague-Dawley rats weighing 200-250 g at the time of experiment were used. After decapitation of the animal, the cerebellum (tissue that mostly contains α1-GABAA receptor) and spinal cord (tissue that mostly contains α2-GABAA receptor) were removed. The membranes were prepared according to the method by J. Lameh et al. (Prog. Neuro-Psychopharmacol. Biol. Psychiatry, 24, 979-991, 2000) and H. Noguchi et al. (Eur J Pharm, 434, 21-28, 2002) with slight modifications. Once the tissues weighed, they were suspended in 50 mM Tris.HCl (pH 7.4), 1:40 (v/v), or sucrose 0.32 M in the case of spinal cord, homogenized and then centrifuged at 20,000 g for 10 min at 7° C. The resulting pellet was resuspended under the same conditions and centrifuged again. The pellet was finally resuspended on a minimum volume and kept at −80° C. overnight. On the next day, the process was repeated until the final pellet was resuspended at a ratio of 1:10 (v/v) in the case of cerebellum and at a ratio of 1:5 (v/v) in the case of spinal cord.
(§3) Affinity was determined by competitive tests using radiolabeled flumazenil as ligand. The tests were performed according to the methods described by S. Arbilla et al. (Eur. J. Pharmacol., 130, 257-263, 1986); and Y. Wu et al. (Eur. J. Pharmacol., 278, 125-132, 1995) using 96-well microtiter plates. The membranes containing the study receptors, flumazenil (radiolabeling at a final concentration of 1 nM) and ascending concentrations of test compounds (in a total volume of 230 μL in 50 mM [pH 7.4] Tris.HCl buffer) were incubated. Simultaneously, the membranes were only incubated with the radiolabeled flumazenil (total binding, 100%) and in the presence of an elevated concentration of unradiolabeled flumazenil (non-specific binding, % estimation of radiolabeled ligand). The reactions started on adding the radiolabeled ligand followed by incubation for 60 minutes at 4° C. At the end of the incubation period, 200 μL of reaction were transferred to a multiscreen plate (Millipore) and filtered using a vacuum manifold and then washed three times with cold test buffer. The multiscreen plates were equipped with a GF/B filter that retained the membranes containing the receptors and the radiolabeled ligand which had been bound to the receptors. After washing, the plates were left till dry. Once dried, scintillation liquid was added and left under stirring overnight. The next day the plates were counted using a Perkin-Elmer Microbeta scintillation counter.
(§4) For analysis of the results the percentage of specific binding for every concentration of test compound was calculated as follows:
(§5) % specific binding=(X−N/T−N)×100
(§6) where, X: amount of bound ligand for every concentration of compound. T: total binding, maximum amount bound to the radiolabeled ligand. N: non-specific binding, amount of radiolabeled ligand bound in a non-specific way irrespective of the receptor used.
(§7) Every concentrations of compound were tested in triplicate and their mean values were used to determine the experimental values of % specific binding versus the concentration of compound. Affinity data are expressed as % inhibition at 10^−5M and 10^−7M concentrations.

[1] = system: spontaneous motor activity of male CD1 mice; experiment: In vivo predictive sedation-hypnosis test (traveled distance); details: Mus musculus, ip, 0.5 h, 98 μmol/kg, single intraperitoneal dose, 30 minutes after dosing (first 5 min discarded), versus control
Experimental: b) In Vivo Determination of Predictive Sedative-Hypnotic Action
The in vivo effects of these compounds were assessed by a predictive sedation-hypnosis test in mice (D. J. Sanger et al., Eur. J. Pharmacol., 313, 35-42, 1996; and G. Griebel et al., Psychopharmacology, 146, 205-213, 1999).
Groups of 5-8 male CD1 mice, weighing 22-26 g at the time of test, were used. The test compounds were administered in single equimolecular intraperitoneal doses, suspended in 0.25% agar with one drop of Tween in a volume of 10 mL/kg. Control animals received the vehicle alone. Using a Smart System (Panlab, S. L., Spain) the traveled distance in cm was recorded for each mouse at 5 min intervals during a period of 30 minutes after dosing. The inhibition percentage traveled distance of treated animals versus control animals (the first 5 min were discarded) was calculated.

α1-GABAA receptor = experiment: Ligand-binding assay, radiolabeled flumazenil competition, cerebellum membranes; design: species or system rat; details: for Affinity for the α1-subunit of the GABAA receptor, % inhibition: rat cerebellum membranes, radiolabeled flumazenil 1 nM
Experimental: as §1, §2, §3, §4, §5, §6, §7

| Structure (SMILES) | Affinity for the α2-subunit of the GABAA receptor, % inhibition (α2-GABAA receptor; 10^−5M) | Affinity for the α2-subunit of the GABAA receptor, % inhibition (α2-GABAA receptor; 10^−7M) | inhibition in vivo at 98 µmol/kg [1] | Affinity for the α1-subunit of the GABAA receptor, % inhibition (α1-GABAA receptor; 10^−5M) | Affinity for the α1-subunit of the GABAA receptor, % inhibition (α1-GABAA receptor; 10^−7M) | affinity for the α2-subunit of GABAA receptor (in words) (α2-GABAA receptor; compared with zolpidem where stated) | α1-/α2-selectivity (in words) (α1-GABAA receptor; compared with zolpidem) |
| --- | --- | --- | --- | --- | --- | --- | --- |
| C=CCN(CC=C)C(=O)Cn1cc(-c2ccc(OC)cc2)c(=O)c2ccc(C)cc21 [Example 97, N,N-Diallyl-2-[3-(4-methoxy-phenyl)-7-methyl-4-oxo-4H-quinolin-1-yl]-acetamide] | 62.0% | 0.0% | 76.8% | 90.7% | 4.9% | – | – |
| C=CCN(CC=C)C(=O)Cn1cc(-c2ccccc2)c(=O)c2ccc(C)cc21 [Example 43, N,N-Diallyl-2-(7-methyl-4-oxo-3-phenyl-4H-quinolin-1-yl)-acetamide] | 88.2% | 12.5% | 91% | 99.0% | 49.9% | higher affinity than prior art compound zolpidem | – |
| Cc1ccc(-c2nc3ccc(C)cn3c2CC(=O)N(C)C)cc1 [zolpidem, reference compound] | 74.1% | 19.9% | 91.7% | 99.8% | 51.9% | – | – |
| Cc1ccc2c(=O)c(-c3ccccc3)cn(CC(=O)N3CC(C)OC(C)C3)c2c1 (centres unmarked) [Example 32, 1-[2-(2,6-Dimethyl-morpholin-4-yl)-2-oxo-ethyl]-7-methyl-3-phenyl-1H-quinolin-4-one] | 55.4% | 0.0% | 90% | 86.2% | 18.4% | – | higher α1-/α2-selectivity than the most selective therapeutically used compound zolpidem |
| CCCN(CCC)C(=O)Cn1cc(-c2ccccc2)c(=O)c2ccccc21 [Example 47, 2-(4-Oxo-3-phenyl-4H-quinolin-1-yl)-N,N-dipropyl-acetamide] | 68.9% | 0.0% | 74.7% | 88.1% | 2.3% | – | – |
| COc1ccc(NC(=O)Cn2cc(-c3ccc(OC)cc3)c(=O)c3ccc(C)cc32)cc1 [Example 80, N-(4-Methoxy-phenyl)-2-[3-(4-methoxy-phenyl)-7-methyl-4-oxo-4H-quinolin-1-yl]acetamide] | 65.1% | 15.7% | 71.9% | 78.5% | 28.5% | – | – |
